The text below walks through data of ChEMBL document CHEMBL4177523, “Ser422 phosphorylation blocks human Tau cleavage by caspase-3: Biochemical implications to Alzheimer's Disease” (Bioorg Med Chem Lett, 2017).

The structures appear in SMILES notation. Activity calls are given as the source filed them. No cut-off for these calls is given here. Square brackets hold non-standard residues; d marks the D form. Peptide text beside a SMILES is read from it. ξ: configuration not given here. ξpS = NC(COP(=O)(O)O)C(=O)O

For orientation: inhibition means how much of the control response was suppressed.

Series [1] deals with T1, Caspase-3 (Homo sapiens) (UniProt P42574).
T1 sequence (whole entry): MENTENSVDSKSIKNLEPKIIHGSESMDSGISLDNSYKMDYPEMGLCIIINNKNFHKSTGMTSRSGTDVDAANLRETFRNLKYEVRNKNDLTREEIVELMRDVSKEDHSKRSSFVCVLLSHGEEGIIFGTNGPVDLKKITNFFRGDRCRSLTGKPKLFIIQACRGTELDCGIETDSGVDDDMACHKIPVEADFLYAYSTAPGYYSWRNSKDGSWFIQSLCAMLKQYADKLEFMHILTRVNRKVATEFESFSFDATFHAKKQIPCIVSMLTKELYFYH
As to the kind of experiment: Substrate activity at recombinant human caspase-3 assessed as enzyme-mediated compound cleavage after 1 hr by RP-HPLC analysis.

The target of series [2] is T1, Caspase-3 (Homo sapiens). As to the kind of experiment: Inhibition of recombinant human caspase-3 at 50 uM using fluorogenic peptide substrate Ac-DEVD-MCA after 30 mins incubation by spectrofluorometric method.
Series [3] in a line: Retention time of the compound by mass spectrometric analysis. In kind it is physicochemical.
The target of series [4] is T1, Caspase-3 (Homo sapiens). As to the kind of experiment: Substrate activity at recombinant human caspase-3 assessed as Ac-STGSIDMVD-OH formation after 1 hr by RP-HPLC analysis.
Series [5] addresses T1, Caspase-3 (Homo sapiens). As to the kind of experiment: Substrate activity at recombinant human caspase-3 assessed as Ac-STGSIDMVD-OH formation after 1 hr by MALDI-TOF/MS analysis.
The target of series [6] is T1, Caspase-3 (Homo sapiens). As to the kind of experiment: Substrate activity at recombinant human caspase-3 assessed as SPQL-CONH2 formation after 1 hr by RP-HPLC analysis.
Series [7] addresses T1, Caspase-3 (Homo sapiens). As to the kind of experiment: Substrate activity at recombinant human caspase-3 assessed as SPQLAT-CONH2 formation after 1 hr by RP-HPLC analysis.
Series [8] deals with T1, Caspase-3 (Homo sapiens). As to the kind of experiment: Substrate activity at recombinant human caspase-3 assessed as SPQLAT-CONH2 formation after 1 hr by MALDI-TOF/MS analysis.
For series [9], the target named is T1, Caspase-3 (Homo sapiens). As to the kind of experiment: Substrate activity at recombinant human caspase-3 assessed as SIDMVD formation after 1 hr by RP-HPLC analysis.
The target of series [10] is T1, Caspase-3 (Homo sapiens). As to the kind of experiment: Substrate activity at recombinant human caspase-3 assessed as SIDMVD formation after 1 hr by MALDI-TOF/MS analysis.
For series [11], the target named is T1, Caspase-3 (Homo sapiens). As to the kind of experiment: Substrate activity at 3-fold excess recombinant human caspase-3 assessed as SIDMVD formation by RP-HPLC analysis. Particulars: TDE = time-dependent effect.
The target of series [12] is T1, Caspase-3 (Homo sapiens). As to the kind of experiment: Substrate activity at 3-fold excess recombinant human caspase-3 assessed as SPQLAT formation by RP-HPLC analysis. The settings on record: TDE = time-dependent effect.
Series [13] concerns the target T1, Caspase-3 (Homo sapiens). As to the kind of experiment: Substrate activity at recombinant human caspase-3 assessed as enzyme-mediated compound cleavage after 1 hr in presence of casapase-3 inhibitor Ac-DQVD-aldehyde by RP-HPLC analysis.

Consider `CC[C@H](C)[C@H](NC(=O)[C@H](CO)NC(=O)CNC(=O)[C@@H](NC(=O)[C@H](CO)NC(C)=O)[C@@H](C)O)C(=O)N[C@@H](CC(=O)O)C(=O)N[C@@H](CCSC)C(=O)N[C@H](C(=O)N[C@@H](CC(=O)O)C(=O)N[C@H](CO)C(=O)N1CCC[C@H]1C(=O)N[C@@H](CCC(N)=O)C(=O)N[C@@H](CC(C)C)C(=O)N[C@@H](C)C(N)=O)C(C)C`, for which the result in series [1] was Active.

Consider `CC[C@H](C)[C@H](NC(=O)[C@H](CO)NC(=O)CNC(=O)[C@@H](NC(=O)[C@H](CO)NC(C)=O)[C@@H](C)O)C(=O)N[C@@H](CC(=O)O)C(=O)N[C@@H](CCSC)C(=O)N[C@H](C(=O)N[C@H](CC(=O)O)C(=O)N[C@@H](CO)C(=O)N1CCC[C@H]1C(=O)N[C@@H](CCC(N)=O)C(=O)N[C@@H](CC(C)C)C(=O)N[C@@H](C)C(N)=O)C(C)C`, for which the result in series [1] was inactive.

In the case of `CC(=O)N[C@@H](CC(=O)O)C(=O)N[C@@H](CCC(N)=O)C(=O)N[C@H](C(=O)N[C@H](C=O)CC(=O)O)C(C)C` (Ac-DQVD-aldehyde), the inhibition in series [2] came to 97.3%.

In [3], `CC[C@H](C)[C@H](NC(=O)[C@H](CO)NC(=O)CNC(=O)[C@@H](NC(=O)[C@H](CO)NC(C)=O)[C@@H](C)O)C(=O)N[C@@H](CC(=O)O)C(=O)N[C@@H](CCSC)C(=O)N[C@H](C(=O)N[C@@H](CC(=O)O)C(=O)O)C(C)C` (Ac-STGSIDMVD-OH) showed a Retention_time of 30.6 min.

For the compound `CC[C@H](C)[C@H](NC(=O)[C@H](CO)NC(=O)CNC(=O)[C@@H](NC(=O)[C@H](CO)NC(C)=O)[C@@H](C)O)C(=O)N[C@@H](CC(=O)O)C(=O)N[C@@H](CCSC)C(=O)N[C@H](C(=O)N[C@@H](CC(=O)O)C(=O)N[C@@H](CO)C(=O)N1CCC[C@H]1C(=O)N[C@@H](CCC(N)=O)C(=O)N[C@@H](CC(C)C)C(N)=O)C(C)C` (Ac-STGSIDMVDSPQL-NH2), the outcome in [4], in [5] and in series [6] was Active. Further, in [3], the Retention_time came to 31.8 min.

For `CC[C@H](C)[C@H](NC(=O)[C@H](CO)NC(=O)CNC(=O)[C@@H](NC(=O)[C@H](CO)NC(C)=O)[C@@H](C)O)C(=O)N[C@@H](CC(=O)O)C(=O)N[C@@H](CCSC)C(=O)N[C@H](C(=O)N[C@@H](CC(=O)O)C(=O)NC(COP(=O)(O)O)C(=O)N1CCC[C@H]1C(=O)N[C@@H](CCC(N)=O)C(=O)N[C@@H](CC(C)C)C(=O)N[C@@H](C)C(N)=O)C(C)C` (some centres not stated) (Ac-STGSIDMVD[ξpS]PQLA-NH2), the result in series [1] was inactive.

Regarding `CC[C@H](C)[C@H](NC(=O)[C@@H](N)CO)C(=O)N[C@@H](CC(=O)O)C(=O)N[C@@H](CCSC)C(=O)N[C@H](C(=O)N[C@@H](CC(=O)O)C(=O)O)C(C)C` (H-SIDMVD-OH), the Retention_time in [3] worked out at 18.1 min.

Regarding `CC[C@H](C)[C@H](NC(=O)[C@@H](N)CO)C(=O)N[C@@H](CC(=O)O)C(=O)N[C@@H](CCSC)C(=O)N[C@H](C(=O)N[C@@H](CC(=O)O)C(=O)N[C@@H](CO)C(=O)N1CCC[C@H]1C(=O)N[C@@H](CCC(N)=O)C(=O)N[C@@H](CC(C)C)C(=O)N[C@@H](C)C(=O)N[C@H](C(N)=O)[C@@H](C)O)C(C)C` (H-SIDMVDSPQLAT-NH2), the result in [7], in [8], in series [9] and in [10] was Active. For the same compound, the Retention_time in [3] is on record as 27.9 min. Also, the Activity entry in series [11] and in series [12] was “Tde” in each case. Also, in [13], the result was inactive.

Consider `CC[C@H](C)[C@H](NC(=O)[C@@H](N)CO)C(=O)N[C@@H](CC(=O)O)C(=O)N[C@@H](CCSC)C(=O)N[C@H](C(=O)N[C@@H](CC(=O)O)C(=O)NC(COP(=O)(O)O)C(=O)N1CCC[C@H]1C(=O)N[C@@H](CCC(N)=O)C(=O)N[C@@H](CC(C)C)C(=O)N[C@@H](C)C(=O)N[C@H](C(N)=O)[C@@H](C)O)C(C)C` (some centres not stated) (H-SIDMVD[ξpS]PQLAT-NH2), for which the Retention_time in series [3] came to 26.3 min. Further, the outcome in series [1] was inactive.

`CC(C)C[C@H](NC(=O)[C@H](CCC(N)=O)NC(=O)[C@@H]1CCCN1C(=O)[C@@H](N)CO)C(N)=O` (H-SPQL-NH2) yielded a Retention_time in series [3] of 19.5 min.

`CC(C)C[C@H](NC(=O)[C@H](CCC(N)=O)NC(=O)[C@@H]1CCCN1C(=O)[C@@H](N)CO)C(=O)N[C@@H](C)C(=O)N[C@H](C(N)=O)[C@@H](C)O` (H-SPQLAT-NH2): the Retention_time in series [3] was determined as 25.7 min.
